Assay results as given in PubChem BioAssay (NCI).
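Values below derive from 48-hour exposures of cells grown in 96-well plates, with endpoints linearly interpolated between the two concentrations bracketing the appropriate inhibition level. At the TGI there is no net growth.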

Legend:
Experiment in all cases: NCI tumour cell line growth inhibition, 48 h
P388 leukemia = test system: P388 leukemia
P388/ADR leukemia = test system: P388/ADR leukemia
SN12K1 renal = test system: SN12K1 renal

| SMILES | TGI (P388 leukemia) | TGI (P388/ADR leukemia) | TGI (SN12K1 renal) |
| --- | --- | --- | --- |
| O=C(CCN1CCOCC1)/C(=C/c1ccccc1)c1ccccc1 | 12.4 µM | 3.99 µM | 10.9 µM |
| C#CC[C@@]12CC(=O)C[C@@H]1CCC1(C2)OCCO1 (tested in a mixture with another compound) | > 59.7 µM | > 75 µM | > 100 µM |
